Measurements taken from US12077503B2, “Substituted cyclic amides and their use as herbicides” (FMC CORPORATION, priority 2015, dated 2024).

Legend:
Assay type in all cases: in vivo
[1] = tested on: sedge, umbrella (small-flower umbrella sedge, Cyperus difformis); experiment: Test B flooded paddy test; conditions: Cyperus difformis, 250 g ai/ha, Flood; 0 to 100 scale where 0 is no effect and 100 is complete control; read-out: Sedge, Umbrella plant response rating
Outline: (§1)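 Plants at 2-leaf stage flooded to 3 cm above soil, with compounds applied directly to paddy water and that depth maintained. Plants kept in greenhouse 13–15 d. Visual rating versus controls on a 0 (no effect) to 100 (complete control) scale.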

[2] = tested on: barnyardgrass (Echinochloa crus-galli); experiment: Test B flooded paddy test; conditions: Echinochloa crus-galli, 250 g ai/ha, Flood; 0 to 100 scale where 0 is no effect and 100 is complete control; read-out: Barnyardgrass plant response rating
Outline: as §1

[3] = tested on: rice (Oryra sativa); experiment: Test B flooded paddy test; conditions: Oryza sativa, 250 g ai/ha, Flood; 0 to 100 scale where 0 is no effect and 100 is complete control; read-out: Rice plant response rating
Outline: as §1

[4] = tested on: ducksalad (Heteranthera limosa); experiment: Test B flooded paddy test; conditions: Heteranthera limosa, 250 g ai/ha, Flood; 0 to 100 scale where 0 is no effect and 100 is complete control; read-out: Ducksalad plant response rating
Outline: as §1

[5] = tested on: ryegrass, Italian (Italian ryegrass, Lolium multiflorum); experiment: Test A preemergence; conditions: Lolium multiflorum, pre-emergence, 240 h, 0 to 100 scale where 0 is no effect and 100 is complete control, read-out: Ryegrass, Italian plant response rating
Outline: (§2)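 Compounds were formulated in a non-phytotoxic solvent mixture with surfactant and applied as a preemergence directed soil spray after seeding, or sprayed postemergence over plants 2 to 10 cm tall at the one- to two-leaf stage. Evaluation after about 10 d compared treated with untreated controls, using a scale from 0 (no effect) to 100 (complete control).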

[6] = tested on: Kochia (Kochia scoparia); experiment: Test A preemergence; conditions: Bassia scoparia, pre-emergence, 240 h, 0 to 100 scale where 0 is no effect and 100 is complete control, read-out: Kochia plant response rating
Outline: as §2

[7] = tested on: pigweed (Amaranthus retroflexus); experiment: Test A preemergence; conditions: Amaranthus retroflexus, pre-emergence, 240 h, 0 to 100 scale where 0 is no effect and 100 is complete control, read-out: Pigweed plant response rating
[8] = tested on: giant foxtail (Setaria faberii); experiment: Test A preemergence; conditions: Setaria faberi, pre-emergence, 240 h, 0 to 100 scale where 0 is no effect and 100 is complete control, read-out: Foxtail, Giant plant response rating
Outline: as §2

[9] = tested on: barnyardgrass (Echinochloa crus-galli); experiment: Test A preemergence; conditions: Echinochloa crus-galli, pre-emergence, 240 h, 0 to 100 scale where 0 is no effect and 100 is complete control, read-out: Barnyardgrass plant response rating
Outline: as §2

[10] = tested on: ragweed (common ragweed, Ambrosia elatior); experiment: Test A preemergence; conditions: Ambrosia artemisiifolia, pre-emergence, 240 h, 0 to 100 scale where 0 is no effect and 100 is complete control, read-out: Ragweed plant response rating
Outline: as §2

[11] = tested on: ryegrass, Italian (Italian ryegrass, Lolium multiflorum); experiment: Test A postemergence; conditions: Lolium multiflorum, post-emergence, 240 h, Postemergence, read-out: Ryegrass, Italian plant response rating (0 to 100 scale)
Outline: as §2

[12] = tested on: Kochia (Kochia scoparia); experiment: Test A postemergence; conditions: Bassia scoparia, post-emergence, 240 h, Postemergence, read-out: Kochia plant response rating (0 to 100 scale)
Outline: as §2

[13] = tested on: pigweed (Amaranthus retroflexus); experiment: Test A postemergence; conditions: Amaranthus retroflexus, post-emergence, 240 h, Postemergence, read-out: Pigweed plant response rating (0 to 100 scale)
Outline: as §2

[14] = tested on: giant foxtail (Setaria faberii); experiment: Test A postemergence; conditions: Setaria faberi, post-emergence, 240 h, Postemergence, read-out: Foxtail, Giant plant response rating (0 to 100 scale)
Outline: as §2

[15] = tested on: barnyardgrass (Echinochloa crus-galli); experiment: Test A postemergence; conditions: Echinochloa crus-galli, post-emergence, 240 h, Postemergence
Outline: as §2

[16] = tested on: blackgrass (Alopecurus myosuroides); experiment: Test A postemergence; conditions: Alopecurus myosuroides, post-emergence, 240 h, Postemergence, read-out: Blackgrass plant response rating (0 to 100 scale)
Outline: as §2

[17] = tested on: corn (Zea mays); experiment: Test A postemergence; conditions: Zea mays, post-emergence, 240 h, Postemergence, read-out: Corn plant response rating (0 to 100 scale)
Outline: as §2

[18] = tested on: Galium (catchweed bedstraw, Galium aparine); experiment: Test A postemergence; conditions: Galium, post-emergence, 240 h, Postemergence, read-out: Galium plant response rating (0 to 100 scale)
Outline: as §2

[19] = tested on: ragweed (common ragweed, Ambrosia elatior); experiment: Test A postemergence; conditions: Ambrosia artemisiifolia, post-emergence, 240 h, Postemergence, read-out: Ragweed plant response rating (0 to 100 scale)
Outline: as §2

[20] = tested on: wheat (Triticum aestivum); experiment: Test A postemergence; conditions: Triticum aestivum, post-emergence, 240 h, Postemergence, read-out: Wheat plant response rating (0 to 100 scale)
Outline: as §2

[21] = 125 g ai/ha, preemergence, visual injury rating, approximately 10 d
[22] = 125 g ai/ha, visual rating about 10 d after treatment
[23] = 31 g ai/ha, 0 is no effect, 100 is complete control

CN1C[C@H](c2cccc(C(F)(F)F)c2)[C@@H](C(=O)Nc2ccccc2-n2cccn2)C1=O [Compound 1284]
0%: pest or weed control at 250 g/ha [1] | pest or weed control at 250 g/ha [2] | pest or weed control at 250 g/ha [3] | pest or weed control at 250 g/ha [4] | pest or weed control at 31 g/ha ([5]; 31 g ai/ha, Preemergence) | pest or weed control at 125 g/ha [5, 21] | pest or weed control at 31 g/ha ([6]; 31 g ai/ha, Preemergence) | pest or weed control at 125 g/ha [6, 21] | pest or weed control at 31 g/ha ([7]; 31 g ai/ha, Preemergence) | pest or weed control at 125 g/ha [7, 21] | pest or weed control at 31 g/ha ([8]; 31 g ai/ha, Preemergence) | pest or weed control at 125 g/ha [8, 21] | pest or weed control at 31 g/ha ([9]; 31 g ai/ha, Preemergence) | pest or weed control at 125 g/ha [9, 21] | pest or weed control at 31 g/ha ([10]; 31 g ai/ha, Preemergence) | pest or weed control at 125 g/ha [10, 21] | pest or weed control at 125 g/ha [11, 22] | pest or weed control at 31 g/ha [11, 23] | pest or weed control at 125 g/ha [12, 22] | pest or weed control at 31 g/ha [12, 23] | pest or weed control at 125 g/ha [13, 22] | pest or weed control at 31 g/ha [13, 23] | pest or weed control at 125 g/ha [14, 22] | pest or weed control at 31 g/ha [14, 23] | pest or weed control at 125 g/ha ([15]; 125 g ai/ha, visual rating about 10 d after treatment, read-out: Barnyardgrass plant response rating (0 to 100 scale, 0 no effect, 100 complete control)) | pest or weed control at 31 g/ha ([15]; 31 g ai/ha, 0 is no effect, 100 is complete control, read-out: Barnyardgrass plant response rating (0 to 100 scale)) | pest or weed control at 125 g/ha [16, 22] | pest or weed control at 31 g/ha [16, 23] | plant injury at 125 g/ha [17, 22] | plant injury at 31 g/ha [17, 23] | pest or weed control at 125 g/ha [18, 22] | pest or weed control at 31 g/ha [18, 23] | pest or weed control at 125 g/ha [19, 22] | pest or weed control at 31 g/ha [19, 23] | plant injury at 125 g/ha [20, 22] | plant injury at 31 g/ha [20, 23]
